This passage reports IC50 results from patent publication US20240150321A1, “PYRAZOLYLSULFONAMIDE COMPOUNDS AND THEIR USE IN THERAPY” (HOTSPOT THERAPEUTICS, INC., priority 2022, published 2024).

One test deals with Avi-tagged FL MALT-1 (Homo sapiens (Human), UniProt Q9UDY8). Kind of test: MALT-1 Fluorogenic Peptide Cleavage Assay (MALT1 inhibition assay). In kind it is biochemical. The note with it: Ac-LRSR-AMC peptide substrate, 30 min pre-incubation, 90 min reaction at room temperature. The gist of the method: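 Cleavage of Ac-LRSR-AMC, read as fluorescence at 342/441 nm after 90 min at room temperature, with substrate working stocks of 50 μM (Km) or 280 μM (10×Km). Enzyme, Avi-tagged full-length MALT-1 (40 nM stock), was first pre-incubated 30 min with compound in citrate/HEPES pH 6.89 buffer with TCEP, EDTA, CHAPS and 2% DMSO; IC50 fitted from normalised % inhibition.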

In test [1] the test system is NF-kB reporter in Jurkat cells. Kind of test: NF-kB reporter assay in Jurkat cells stimulated with aCD3/aCD28/PMA. The note with it: Homo sapiens; Jurkat cells, 1 hr compound pre-incubation, aCD3/aCD28/PMA stimulation 4 hr, One-Glo readout; read-out: NF-kB Reporter Assay IC50. In kind it is cell-based. The gist of the method:
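Luminescence (One-Glo) from the NF-kB reporter yielded IC50 values. Stimulation lasted 4 h at 37° C with aCD3, aCD28 and PMA (final 5, 5 and 0.03 […]), after 1 h compound pre-exposure of 25,000 Jurkat cells per well in serum-free RPMI.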
(In general: In a reporter assay the amount or activity of a reporter protein is the signal.)

Chain of Avi-tagged FL MALT-1 (Q9UDY8 whole entry): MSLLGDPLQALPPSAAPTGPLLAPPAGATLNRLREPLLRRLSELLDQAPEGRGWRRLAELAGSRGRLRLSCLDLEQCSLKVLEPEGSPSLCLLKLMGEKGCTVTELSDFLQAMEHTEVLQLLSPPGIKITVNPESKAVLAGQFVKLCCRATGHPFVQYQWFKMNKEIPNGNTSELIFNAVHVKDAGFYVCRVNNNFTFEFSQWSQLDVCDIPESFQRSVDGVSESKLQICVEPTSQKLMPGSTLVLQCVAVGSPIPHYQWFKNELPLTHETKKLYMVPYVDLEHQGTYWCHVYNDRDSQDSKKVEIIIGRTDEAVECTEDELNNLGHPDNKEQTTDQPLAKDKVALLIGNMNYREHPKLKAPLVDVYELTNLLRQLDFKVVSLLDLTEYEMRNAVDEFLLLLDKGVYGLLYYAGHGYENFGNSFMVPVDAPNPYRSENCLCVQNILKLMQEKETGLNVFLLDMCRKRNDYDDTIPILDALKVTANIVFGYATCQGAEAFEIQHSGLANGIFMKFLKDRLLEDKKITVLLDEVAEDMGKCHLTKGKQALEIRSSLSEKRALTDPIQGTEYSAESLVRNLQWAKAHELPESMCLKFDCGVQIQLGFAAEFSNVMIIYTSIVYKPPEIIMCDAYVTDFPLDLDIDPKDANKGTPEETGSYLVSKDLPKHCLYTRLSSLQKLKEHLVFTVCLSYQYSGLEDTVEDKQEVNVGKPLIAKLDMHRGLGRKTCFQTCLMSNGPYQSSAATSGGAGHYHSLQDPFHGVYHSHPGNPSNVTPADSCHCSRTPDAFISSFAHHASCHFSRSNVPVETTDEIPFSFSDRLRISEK

In general, IC50 refers to the concentration that gives 50% inhibition. Turning to `COc1ccc2cnn(C)c2c1NS(=O)(=O)c1cnn(-c2cc(N3CC4CC(C4)C3)ccn2)c1` [Compound I-404], the IC50 against Avi-tagged FL MALT-1 is more than 2500 nM; in test [1], less than 400 nM.
For the compound `COc1ncc2cnn(C)c2c1NS(=O)(=O)c1cnn(-c2cc(N3CC4CC4C3)ccn2)c1` (stereo not drawn) [Compound I-405], the figures for the IC50 (at Avi-tagged FL MALT-1; in test [1]) were more than 2500 nM and less than 400 nM, respectively.
On the same counts, the results for `COc1ncc2cnn(C)c2c1NS(=O)(=O)c1cnn(-c2cc(N3CC4CC(C4)C3)ccn2)c1` [Compound I-406] are more than 2500 nM and less than 400 nM.
On the same counts, the results for `COc1ncc2cnn(C)c2c1NS(=O)(=O)c1cnn(-c2cc(N3CCC(C)CC3)ccn2)c1` [Compound I-407] are more than 2500 nM and less than 400 nM.
`COc1ncc2cnn(C)c2c1NS(=O)(=O)c1cnn(-c2cc(N3CCCCCC3)ccn2)c1` [Compound I-408]: the IC50 was more than 2500 nM on Avi-tagged FL MALT-1 and less than 400 nM in test [1].
On the same counts, the results for `Cn1ncc2cccc(NS(=O)(=O)c3cnn(-c4cc(N5CC6CC5C6)ccn4)c3)c21` [Compound I-409, 1-(4-{2-azabicyclo[2.1.1]hexan-2-yl}pyridin-2-yl)-N-(1-methylindazol-7-yl)pyrazole-4-sulfonamide] are more than 2500 nM and less than 400 nM.
On the same counts, the results for `Cn1ncc2cccc(NS(=O)(=O)c3cnn(-c4cc(N5CCC6(CC6)C5)ccn4)c3)c21` [Compound I-410, 1-(4-{5-azaspiro[2.4]heptan-5-yl}pyridin-2-yl)-N-(1-methylindazol-7-yl)pyrazole-4-sulfonamide] are more than 2500 nM and less than 400 nM.
On the same counts, the results for `[2H]C([2H])([2H])n1ncc2cnc(OC)c(NS(=O)(=O)c3cnn(-c4cc(C(C)(F)F)ccn4)c3)c21` [Compound I-411, 1-(4-(1,1-Difluoroethyl)Pyridin-2-yl)-N-(6-Methoxy-1-(Methyl-D3)-1H-Pyrazolo[4,3-C]Pyridin-7-yl)-1H-Pyrazole-4-Sulfonamide] are not above 400 nM and less than 400 nM.
For the compound `[2H]C([2H])([2H])n1ncc2ccc(OC)c(NS(=O)(=O)c3cnn(-c4cc(C(C)(F)F)ccn4)c3)c21` [Compound I-412, 1-(4-(1,1-Difluoroethyl)Pyridin-2-yl)-N-(6-Methoxy-1-(Methyl-D3)-1H-Indazol-7-yl)-1H-Pyrazole-4-Sulfonamide], the IC50 was not above 400 nM against Avi-tagged FL MALT-1 and less than 400 nM in test [1].
On the same counts, the results for `COc1ccc2cnn(C)c2c1NS(=O)(=O)c1cnn(-c2cc(C3(F)CC(C)C3)ccn2)c1` (stereo not drawn) [Compound I-413, 1-(4-(1-fluoro-3-methylcyclobutyl)pyridin-2-yl)-N-(6-methoxy-1-methyl-1H-indazol-7-yl)-1H-pyrazole-4-sulfonamide] are 400 to 1000 nM and less than 400 nM.
On the same counts, the results for `CN1CC[C@@H](n2cc(S(=O)(=O)Nc3cccc4cnn(C)c34)cn2)CC1=O` [Compound I-414] are more than 2500 nM and more than 2500 nM.
On the same counts, the results for `CN1CC[C@H](n2cc(S(=O)(=O)Nc3cccc4cnn(C)c34)cn2)CC1=O` [Compound I-415] are more than 2500 nM and more than 2500 nM.
Consider `COc1ncc2cnn(C)c2c1NS(=O)(=O)c1cnn(-c2cc(N3CCOCC3)ccn2)c1` [Compound I-416], for which the values for the IC50 (against Avi-tagged FL MALT-1; in test [1]) were more than 2500 nM and 1000 to 2500 nM, respectively.
Taken in the same sequence, the figures for `COc1ccc2cnn(C)c2c1NS(=O)(=O)c1cnn(-c2cc(N3CC4CC4C3)ccn2)c1` (stereo not drawn) [Compound I-417] were more than 2500 nM and less than 400 nM.
Taken in the same sequence, the figures for `COc1ccc2cnn(C)c2c1NS(=O)(=O)c1cnn(-c2cc(N3CCC(C)CC3)ccn2)c1` [Compound I-418] were more than 2500 nM and less than 400 nM.
Taken in the same sequence, the figures for `COc1ncc2cnn(C)c2c1NS(=O)(=O)c1cnn(-c2cc(N3CC[C@H](C)C3)ccn2)c1` [Compound I-419] were more than 2500 nM and less than 400 nM.
As for `COc1ncc2cnn(C)c2c1NS(=O)(=O)c1cnn(-c2cc(N3CC[C@@H](C)C3)ccn2)c1` [Compound I-420], the IC50 against Avi-tagged FL MALT-1 was more than 2500 nM; in test [1], less than 400 nM.
Taken in the same sequence, the figures for `Cn1ncc2cccc(NS(=O)(=O)c3cnn(-c4cc(N5CCC(C)(C)C5)ccn4)c3)c21` [Compound I-421, 1-(4-(3,3-dimethylpyrrolidin-1-yl)pyridin-2-yl)-N-(1-methyl-1H-indazol-7-yl)-1H-pyrazole-4-sulfonamide] were more than 2500 nM and less than 400 nM.
Taken in the same sequence, the figures for `COc1ccc2cnn(C)c2c1NS(=O)(=O)c1cnn(-c2cc(N3CC[C@H](F)C3)ccn2)c1` [Compound I-422] were more than 2500 nM and less than 400 nM.
On the same counts, the results for `COc1ccc2cnn(C)c2c1NS(=O)(=O)c1cnn(-c2cc(N3CC[C@@H](F)C3)ccn2)c1` [Compound I-423] are more than 2500 nM and less than 400 nM.
As to `COc1ncc2cnn(C)c2c1NS(=O)(=O)c1cnn(-c2cc(N3CCC4(CC4)C3)ccn2)c1` [Compound I-424], the IC50 against Avi-tagged FL MALT-1 was more than 2500 nM; in test [1], less than 400 nM.
On the same counts, the results for `COc1ncc2cnn(C)c2c1NS(=O)(=O)c1cnn(-c2cc(N3CCC(C)(C)C3)ccn2)c1` [Compound I-425] are more than 2500 nM and less than 400 nM.
Consider `COc1ncc2cnn(C)c2c1NS(=O)(=O)c1cnn(-c2cc(N3CC[C@H](F)C3)ccn2)c1` [Compound I-426], for which the figures for the IC50 (on Avi-tagged FL MALT-1; in test [1]) were more than 2500 nM and less than 400 nM, respectively.
On the same counts, the results for `COc1ncc2cnn(C)c2c1NS(=O)(=O)c1cnn(-c2cc(N3CC[C@@H](F)C3)ccn2)c1` [Compound I-427] are more than 2500 nM and 400 to 1000 nM.
Taken in the same sequence, the figures for `COc1ncc2cnn(C)c2c1NS(=O)(=O)c1cnn(-c2cc(N3CCC(F)(F)C3)ccn2)c1` [Compound I-428, 1-(4-(3,3-difluoropyrrolidin-1-yl)pyridin-2-yl)-N-(6-methoxy-1-methyl-1H-pyrazolo[4,3-c]pyridin-7-yl)-1H-pyrazole-4-sulfonamide] were 400 to 1000 nM and less than 400 nM.
On the same counts, the results for `Cn1ncc2cccc(NS(=O)(=O)c3cnn(-c4cc(N5CC[C@H](F)C5)ccn4)c3)c21` [Compound I-429, 1-{4-[(3S)-3-fluoropyrrolidin-1-yl]pyridin-2-yl}-N-(1-methylindazol-7-yl) pyrazole-4-sulfonamide] are more than 2500 nM and less than 400 nM.
In the case of `Cn1ncc2cccc(NS(=O)(=O)c3cnn(-c4cc(N5CC[C@@H](F)C5)ccn4)c3)c21` [Compound I-430, 1-{4-[(3R)-3-fluoropyrrolidin-1-yl]pyridin-2-yl}-N-(1-methylindazol-7-yl)pyrazole-4-sulfonamide], the IC50 was more than 2500 nM against Avi-tagged FL MALT-1 and less than 400 nM in test [1].
On the same counts, the results for `Cn1ncc2cccc(NS(=O)(=O)c3cnn(-c4cc(N5CCC(F)(F)C5)ccn4)c3)c21` [Compound I-431, 1-[4-(3,3-difluoropyrrolidin-1-yl)pyridin-2-yl]-N-(1-methylindazol-7-yl)pyrazole-4-sulfonamide] are more than 2500 nM and less than 400 nM.
On the same counts, the results for `COc1ccc2cnn(C)c2c1NS(=O)(=O)c1cnn(-c2cc(N3CC4CC3C4)ccn2)c1` [Compound I-432, 1-(4-(2-azabicyclo[2.1.1]hexan-2-yl)pyridin-2-yl)-N-(6-methoxy-1-methyl-1H-indazol-7-yl)-1H-pyrazole-4-sulfonamide] are 400 to 1000 nM and less than 400 nM.
Taken in the same sequence, the figures for `COc1ccc2cnn(C)c2c1NS(=O)(=O)c1cnn(-c2cc(N3CCC4(CC4)C3)ccn2)c1` [Compound I-433] were more than 2500 nM and less than 400 nM.
As to `COc1ccc2cnn(C)c2c1NS(=O)(=O)c1cnn(-c2cc(N3CCC(C)(C)C3)ccn2)c1` [Compound I-434], the figures for the 50% inhibitory concentration (IC50) (against Avi-tagged FL MALT-1; in test [1]) were more than 2500 nM and less than 400 nM, respectively.
Taken in the same sequence, the figures for `COc1ccc2cnn(C)c2c1NS(=O)(=O)c1cnn(-c2cc(N3CCC(F)(F)C3)ccn2)c1` [Compound I-435, 1-(4-(3,3-difluoropyrrolidin-1-yl)pyridin-2-yl)-N-(6-methoxy-1-methyl-1H-indazol-7-yl)-1H-pyrazole-4-sulfonamide] were more than 2500 nM and less than 400 nM.
Taken in the same sequence, the figures for `COc1ncc2cnn(C)c2c1NS(=O)(=O)c1cnn(-c2cc(N3CC4CC3C4)ccn2)c1` [Compound I-436] were 1000 to 2500 nM and less than 400 nM.
Taken in the same sequence, the figures for `CN(C)c1ccnc(-n2cc(S(=O)(=O)Nc3cccc4cnn(C)c34)cn2)c1` [Compound I-437, 1-[4-(dimethylamino)pyridin-2-yl]-N-(1-methylindazol-7-yl)pyrazole-4-sulfonamide] were more than 2500 nM and less than 400 nM.
As for `Cn1ncc2cccc(NS(=O)(=O)c3cnn(-c4cc(N5CC(F)C5)ccn4)c3)c21` [Compound I-438, 1-[4-(3-fluoroazetidin-1-yl)pyridin-2-yl]-N-(1-methylindazol-7-yl)pyrazole-4-sulfonamide], the IC50 against Avi-tagged FL MALT-1 was more than 2500 nM; in test [1], less than 400 nM.
Taken in the same sequence, the figures for `Cn1ncc2cccc(NS(=O)(=O)c3cnn(-c4cc(N5CC(F)(F)C5)ccn4)c3)c21` [Compound I-439, 1-[4-(3,3-difluoroazetidin-1-yl)pyridin-2-yl]-N-(1-methylindazol-7-yl) pyrazole-4-sulfonamide] were more than 2500 nM and less than 400 nM.
